Data taken from PubChem BioAssay (NCI).
“And” between values parts separate entries of the source, which are not always exact repeats. Equal entries are not always repeated.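 48-hour exposure; five concentrations; linearly interpolated endpoints. Here, GI50 denotes the concentration required for 50% inhibition of growth. TGI denotes the concentration required for complete inhibition of growth.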

Assays:
Assay in all cases: NCI anticancer screen, dose series, 48 h
[1] = system: HCT-15 colon
[2] = system: OVCAR-8 ovarian
[3] = system: SN12C renal
[4] = system: SNB-75 CNS
[5] = system: ACHN renal
[6] = system: M14 melanoma
[7] = system: SR leukemia
[8] = system: CAKI-1 renal
[9] = system: MDA-MB-231 breast
[10] = system: K-562 leukemia

| SMILES | TGI [1] [µM] | TGI [2] [µM] | TGI [3] | TGI [4] | TGI [5] [µM] | TGI [6] [µM] | TGI [7] [µM] | TGI [8] [µM] | GI50 [1] [µM] | GI50 [2] [µM] | GI50 [3] [µM] | GI50 [4] [µM] | GI50 [9] [µM] | TGI [9] [µM] | GI50 [10] [µM] | TGI [10] [µM] | GI50 [5] [µM] | GI50 [6] [µM] | GI50 [7] [µM] | GI50 [8] [µM] |
| --- | --- | --- | --- | --- | --- | --- | --- | --- | --- | --- | --- | --- | --- | --- | --- | --- | --- | --- | --- | --- |
| O=C1CN(c2cccc(Cl)c2)C(=O)CN1CCN1CC(=O)N(c2cccc(Cl)c2)CC1=O | > 100 | > 100 | > 100 µM | > 100 µM | > 100 | > 100 | > 100 | > 100 | – | – | – | – | – | – | – | – | – | – | – | – |
| COC[C@H]1Cn2cc(-c3nc(Nc4ccnn4C)ncc3C)nc2C(=O)N1Cc1ccc(F)c(F)c1 | > 100 | > 100 | > 100 µM | > 100 µM | > 100 | > 100 | > 100 | > 100 | 28.3 | 98.2 | 11.1 | 9.59 | 0.678 | > 78.6 | 5.85 | > 100 | 12.6 | 0.0403 | > 100 | 0.795 |
| COc1cc(-c2ccc3cc(OC)c(OC)c(OC)c3c2)cc(OC)c1OC | > 100 | > 100 | > 100 µM | – | > 100 | > 100 | > 100 | > 100 | 6.03 | > 100 | > 100 | – | 8.91 | > 100 | 5.07 | > 100 | 40.2 | 9.52 | 5.19 | > 100 |
| O=C(/C=C/c1ccc([N+](=O)[O-])cc1)c1ccc(NCc2nc3ccccc3[nH]2)cc1 | 11.8 | 12.9 | 14.8 µM | 31.5 µM | 23 | 24 | 8.15 | 21.2 | – | – | – | – | – | – | – | 7.03 | – | – | – | – |
| Cc1cc2c(C)[nH]nc2c(C(=O)O)c1C | > 100 | > 100 | > 100 µM | > 100 µM | > 100 | – | > 100 | > 100 | – | – | – | – | – | – | – | > 100 | – | – | – | – |
| C/C(=N/Nc1ccc([N+](=O)[O-])cc1[N+](=O)[O-])C(CC(C(=O)NCc1ccccc1)/C(C)=N\Nc1ccc([N+](=O)[O-])cc1[N+](=O)[O-])C(=O)NCc1ccccc1 (stereo not given) | 26 | 4.73 | 15.1 µM | 12.4 µM | 17.4 | 21.9 | 35.7 | 20.4 | – | – | – | – | – | – | – | – | – | – | – | – |
| CC(=O)OCCOCNC(=S)N/N=C(\C)c1cnccn1 | > 100 | > 100 | > 100 µM | > 100 µM | 86.3 | 54.7 | > 100 | – | – | – | – | – | – | – | – | > 100 | – | – | – | – |
| COc1ccc(-c2cn[nH]c2-c2cc(OC)c(OC)c(OC)c2)cc1 | 21.8 | 38.1 | 47.3 µM | 33.6 µM | 21.3 | – | 13.9 | 18.2 | 0.0217 | 0.05 | 0.193 | 0.022 | 0.055 | 33.1 | < 0.0109 | 26.7 | 0.0615 | – | 0.0177 | 0.0187 |
| N#C/C(=C\c1cccc(Cl)c1Cl)c1ccccc1 | > 77.6 | > 100 | > 100 µM | 51.1 µM | > 90.8 | > 100 | > 80.9 | 77.7 | – | – | – | – | – | – | – | > 100 | – | – | – | – |
| COC(=O)CC(c1ccccc1)C1(c2ccccc2)SCCS1 (stereo not given) | > 290 | > 290 | > 290 µM | – | > 290 | – | > 290 | > 290 | – | – | – | – | – | – | – | > 290 | – | – | – | – |
| Cc1ccc(Oc2ccc(C)cc2N)cc1 | > 100 | > 100 | > 100 µM | 73.3 µM | – | > 100 | > 100 | – | – | – | – | – | – | – | – | > 100 | – | – | – | – |
| COc1cc(C2CC(C)(O)Oc3cc4c(cc32)OCO4)cc(OC)c1OC (stereo not given) | > 100 | 6.01 | > 100 µM | – | > 100 | > 100 | > 100 | > 100 | – | – | – | – | – | 0.851 | – | > 100 | – | – | – | – |
| O=C1CCCCN1c1ccccc1C#C/C=C\C#Cc1ccccc1C(F)(F)F | 6.05 | 5.64 | 3.67 µM | 11.4 µM | 14.7 | 2.29 | – | 9.83 | 1.53 | 1.49 | 1.59 | 1.61 | 1.16 | 2.71 | 1.46 | 8.65 | 2.67 | 0.909 | – | 1.68 |
| CC1=C2C(=C[C@@](C)(CO)[C@@H]2O)C(=O)[C@](C)(O)C12CC2 | 0.0344 | 0.0311 | 0.112 µM and 0.119 µM | 0.0296 µM and 0.0123 µM | 0.0878 | 0.0228 | – | – | – | – | – | – | 0.503 | – | 0.0222 | – | 0.0189 | – | – | 0.178 |
| O=C(Oc1ccc(Cl)cc1)c1ccccc1Nc1ccnc(C(F)(F)F)c1 | 5.13 | 35.5 | 8.72 µM | – | 33.1 | 4.53 | > 100 | 4.67 | 2.07 | 4.04 | 2.95 | – | 1.78 | 7.04 | 3.65 | 87.8 | 10.8 | 2.12 | 3.79 | 2.32 |
| C=C1C(=O)O[C@H]2[C@H]1CC/C(COC(=O)NCc1ccc(Cn3c(=O)sn(-c4ccc(OC)cc4)c3=O)cc1)=C\CC[C@@]1(C)O[C@@H]21 | 3.36 | 5.82 | 4.96 µM | 15.3 µM | 3.27 | 5.65 | 5.2 | 6.83 | 1.68 | 2.37 | 2.14 | 3.44 | 1.97 | 4.11 | – | – | 1.73 | 2.19 | 0.535 | 2.34 |
| O=S(=O)(N/N=C/c1cccc(/C=N/NS(=O)(=O)c2ccccc2)c1)c1ccccc1 | > 100 | > 100 | > 100 µM | > 100 µM | > 100 | > 100 | > 100 | – | – | – | – | – | – | – | – | > 100 | – | – | – | – |
| CC(C)(C)c1cc2c(O)c3cccc4c(=O)c5cccc6c5-c(c34)c2c(c1)c6=O | > 100 | > 100 | > 100 µM | > 100 µM | > 100 | > 100 | 30.4 | > 100 | – | – | – | – | – | – | – | > 100 | – | – | – | – |
| Cc1ccc(-n2c3nc(=O)[nH]c(=O)c-3cc3cc([N+](=O)[O-])ccc32)cc1 | > 100 | > 100 | 56.5 µM | 59.4 µM | > 100 | 36.6 | – | 39.2 | 25.5 | 38.6 | 20.6 | 16.6 | 17.8 | 44.2 | 33.4 | > 100 | 38.1 | 17.3 | – | 10.4 |
| O=C(/C(=C/c1ccc([N+](=O)[O-])cc1)SCc1ccccc1)c1ccc(Cl)cc1 | 5.41 | 15.2 | 8.58 µM | 35.7 µM | 4.16 | 8.59 | 6.63 | – | 2.14 | 3.98 | 2.66 | 16 | 2.67 | 10.2 | 2.65 | > 100 | 1.97 | 2.63 | 1.76 | – |
| CCOC(=O)C1=C(C(=O)OCC)C2c3ccccc3C=CN2C(C(=O)OCC)=C(SC)S1 (stereo not given) | > 100 | > 100 | > 100 µM | > 100 µM | > 100 | > 100 | > 100 | > 100 | – | – | – | – | – | – | – | > 100 | – | – | – | – |
| O=C1CCC2(c3ccc(Cl)cc3)Nc3ccncc3N12 (stereo not given) | > 10 | > 10 | > 10 µM | > 10 µM | > 10 | > 10 | > 10 | – | – | – | – | – | – | > 10 | – | > 10 | – | – | – | – |
| Cc1ccc(/C=C/C(=O)CCN(C)C)cc1 | 38.2 | 62.2 | 32.1 µM | 35.1 µM | 32.9 | 38.7 | 62.7 | 26.8 | – | – | – | – | – | – | – | > 100 | – | – | – | – |
| COc1cc(/C(C#N)=C/c2nc3c(N4CCOCC4)nc(Cl)nc3n2C)cc(OC)c1OC | 6.94 | 31.3 | 22.1 µM | – | 4.99 | – | – | 2.87 | < 0.01 | < 0.01 | < 0.01 | – | < 0.01 | 35.9 | < 0.01 | > 38.4 | < 0.01 | – | < 0.01 | < 0.01 |
| CC(C)=CCC(O)C1=CC(=O)c2c(O)ccc(O)c2C1=O (stereo not given) | 0.526 | 3.35 | 1.45 µM | 11.1 µM | 1.86 | 2.52 | – | 0.986 | – | – | – | – | – | 4.71 | – | 0.602 | – | – | – | – |
| Nc1ccc(C2=NNC(=O)Cc3cc4c(cc32)OCCO4)cc1Cl | > 50 | > 50 | > 50 µM | 27.9 µM | > 50 | > 50 | > 50 | > 50 | 2.49 | 8.03 | 14.9 | 2 | 27.1 | > 50 | – | – | 18.8 | 2.3 | 1.37 | 1.99 |
